The source of these data is ChEMBL document CHEMBL1134235, “Bisphosphonates derived from fatty acids are potent growth inhibitors of Trypanosoma cruzi” (Bioorg Med Chem Lett, 2001).

SMILES strings stand for the structures.

In experiment [1] the test system is Trypanosoma cruzi. The experiment can be described thus: In vitro antiparasitic activity against Trypanosoma cruzi (amastigotes). In kind it is functional, organism-based.
Experiment [2] deals with Trypanosoma cruzi. The experiment can be described thus: In vitro antiparasitic activity against Trypanosoma cruzi (epimastigotes). In kind it is functional, organism-based.
Experiment [3] has as its system Trypanosoma cruzi. The experiment can be described thus: In vitro […] antiparasitic activity against Trypanosoma cruzi at 70 uM (amastigotes). The format is functional.
For experiment [4], the system named is Trypanosoma cruzi. The experiment can be described thus: In vitro […] antiparasitic activity against Trypanosoma cruzi at 50 uM (amastigotes). In kind it is functional.

In the case of `NCCCC(O)(P(=O)(O)O)P(=O)(O)O` [ALENDRONIC ACID], in the experiment with Trypanosoma cruzi [1], half-maximal inhibition (IC50) was put at 65 µM. In the case of `CCCC(O)(P(=O)(O)O)P(=O)(O)O`, the results for the IC50 in the experiment on Trypanosoma cruzi [1] and in the experiment with Trypanosoma cruzi [2] were 21.4 µM and > 70 µM, respectively.

For the molecule `CCCCCC(O)(P(=O)(O)O)P(=O)(O)O`, the results for the IC50 with Trypanosoma cruzi [1] and with Trypanosoma cruzi [2] were 70 µM and > 70 µM, respectively. The inhibition (usually the drop in the measured response relative to a control, in per cent) at 70 µM in the experiment on Trypanosoma cruzi [3] was determined as 34%. In the case of `CCCCCCCCCCCCCC(O)(P(=O)(O)O)P(=O)(O)O`, the IC50 (commonly the concentration that gives 50% inhibition) with Trypanosoma cruzi [1] was determined as 53.5 µM.

As to `CCCCCCCCCC(O)(P(=O)(O)O)P(=O)(O)O`, the IC50 with Trypanosoma cruzi [1] and in the experiment on Trypanosoma cruzi [2] was > 70 µM each time. In addition, in the experiment with Trypanosoma cruzi [3], 70 µM produced 10% inhibition. For the molecule `O=P(O)(O)C(O)(COc1ccccc1)P(=O)(O)O`, the IC50 in the experiment on Trypanosoma cruzi [1] was > 70 µM. In addition, the inhibition at 70 µM with Trypanosoma cruzi [3] was 16%.

Consider `CCCCCCCC(O)(P(=O)(O)O)P(=O)(O)O`, for which the IC50 with Trypanosoma cruzi [1] and with Trypanosoma cruzi [2] was > 70 µM each time. In addition, testing at 70 µM with Trypanosoma cruzi [3] gave an inhibition of 41%. In the case of `CCCCCCC(O)(P(=O)(O)O)P(=O)(O)O`, the IC50 in the experiment with Trypanosoma cruzi [1] was 18.1 µM; in the experiment on Trypanosoma cruzi [2], > 70 µM.

`O=P(O)(O)C(O)(Cc1cccnc1)P(=O)(O)O` [RISEDRONIC ACID]: in the experiment with Trypanosoma cruzi [1], the IC50 came to 300 µM. Take `CCCCCCCCC(O)(P(=O)(O)O)P(=O)(O)O`: the figures for the IC50 with Trypanosoma cruzi [1] and in the experiment with Trypanosoma cruzi [2] were 65.8 µM and > 70 µM, respectively. In the case of `NCCC(O)(P(=O)(O)O)P(=O)(O)O` [PAMIDRONIC ACID], it took 65 µM to reach half-maximal inhibition in the experiment with Trypanosoma cruzi [1] (IC50). Regarding `O=P(O)(O)C(O)(COc1ccc(Oc2ccccc2)cc1)P(=O)(O)O`, the IC50 with Trypanosoma cruzi [1] is > 50 µM. This molecule also had an inhibition at 70 µM in the experiment on Trypanosoma cruzi [3] of 23%.

As for `O=P(O)(O)C(O)(COc1ccc(Cl)cc1Cl)P(=O)(O)O`, 50 µM produced 37% inhibition in the experiment with Trypanosoma cruzi [4]. Besides, in the experiment on Trypanosoma cruzi [1], the IC50 was > 50 µM.
